{"source": "patent US6369083B1", "about": "“2-methoxyimino-2 (pyrinyloxymethyl) phenyl acetamides with polyether derivatives on the pyridine ring” (Dow AgroSciences LLC, priority 1998, dated 2002)", "type_in_all_cases": "in vivo", "key": {"Plasmopara viticola": {"test_system": "Plasmopara viticola", "experiment": "Downy Mildew of Grape (PLASVI), 96 hour protectant", "conditions": "grape vines (cultivar Carignane), sprayed at 100 ppm, inoculated after 96 hours (protectant)", "method": "Compound Formulation: […] Final treatment volumes were obtained by adding nine volumes 0.05kOO aqueous Tween-20 or Triton X-100, depending upon the pathogen. Downy Mildew of Grape (Plasmogara viticola-[…]) (96 Hour Protectant): Vines (cultivar Carignane) were grown from seed in a soilless peat-based potting mixture (Metromix) until the seedlings were 10-20 cm tall. These plants were then sprayed to run off with the test compound at a rate of 100 ppm. After 96 hours the test plants were inoculated by spraying with an aqueous sporangia suspension of Plasmopara viticola. The plants were then transferred to the greenhouse until disease developed on the untreated control plants. The following table presents the activity of typical compounds of the present invention when evaluated in these experiments. The effectiveness of the test compounds in controlling disease was rated using the following scale: […]"}, "Erysiphe graminis": {"test_system": "Erysiphe graminis", "experiment": "Powdery Mildew of Wheat (ERYSGT)", "conditions": "wheat (cultivar Monon), inoculated, sprayed at 25 ppm after 48 hours", "method": "Compound Formulation: […] Final treatment volumes were obtained by adding nine volumes 0.05kOO aqueous Tween-20 or Triton X-100, depending upon the pathogen. Powdery Mildew of Wheat (Erysiphe graminis-[…]): Wheat (cultivar Monon) was grown in a soilless peat-based potting mixture (Metromix) until the seedlings were 1-2 leaf (BBCH 12). These plants were then inoculated with Erysiphe graminis by dusting spores from stock plants onto the test plants. After 48 hours the plants were sprayed to run off with the test compound at a rate of 25 ppm and then kept in the greenhouse until disease developed on the untreated control plants. The following table presents the activity of typical compounds of the present invention when evaluated in these experiments. The effectiveness of the test compounds in controlling disease was rated using the following scale: […]"}, "Puccinia recondita": {"test_system": "Puccinia recondita", "experiment": "Brown rust (PUCCRT)", "conditions": "wheat (cultivar Monon), sprayed at 100 ppm, inoculated after 24 hours", "method": "(§1) Compound Formulation: […] Final treatment volumes were obtained by adding nine volumes 0.05kOO aqueous Tween-20 or Triton X-100, depending upon the pathogen. Glume blotch of wheat (Leptosphaeria nodorum-[…]): Wheat (cultivar Monon) was grown from seed in a soilless peat-based potting mixture (Metromix) until the seedlings were 1-2 leaf (BBCH 12). These plants were then sprayed to run off with the test compound at a rate of 100 ppm. After 24 hours the test plants were inoculated with an aqueous spore suspension of Leptosphaeria nodorum. The plants were then transferred to the greenhouse until disease developed on the untreated control plants. Brown rust (Puccinia recondita-PUCCRT): Wheat (cultivar Monon) was grown from seed in a soilless peat-based potting mixture (Metromix) until the seedlings were 1-2 leaf (BBCH 12). These plants were then sprayed to run off with the test compound at a rate of 100 ppm. After 24 hours the test plants were inoculated with an aqueous spore suspension of Puccinia recondita. The plants were then transferred to the greenhouse until disease developed on the untreated control plants. The following table presents the activity of typical compounds of the present invention when evaluated in these experiments. The effectiveness of the test compounds in controlling disease was rated using the following scale: […]"}, "Leptosphaeria nodorum": {"test_system": "Leptosphaeria nodorum", "experiment": "Glume blotch of wheat (LEPTNO)", "conditions": "wheat (cultivar Monon), sprayed at 100 ppm, inoculated after 24 hours", "method": "as §1"}}}
{"compound": "CNC(=O)C(=NOC)c1ccccc1COc1nc(OCC2COC(C)(C)O2)c(Cl)cc1Cl", "note": "(centres unmarked) [Compound 1]", "values": [{"measurement": "PLASVI control of plant disease", "setting": "Plasmopara viticola", "result": "++ (++ = 75-100 % control of plant disease)"}, {"measurement": "ERYSGT control of plant disease", "setting": "Erysiphe graminis", "result": "+ (+ = 25-74% control of plant disease)"}, {"measurement": "PUCCRT control of plant disease", "setting": "Puccinia recondita", "result": "++ (++ = 75-100 % control of plant disease)"}, {"measurement": "LEPTNO control of plant disease", "setting": "Leptosphaeria nodorum", "result": "++ (++ = 75-100 % control of plant disease)"}]}
{"compound": "CNC(=O)C(=NOC)c1ccccc1COc1cccc(OCC2COC(C)(C)O2)n1", "note": "(stereo not drawn) [Compound 2, Benzeneacetamide, 2-[[[6-((2,2-dimethyl-1,3-dioxolanyl)-4-methoxy)-2-pyridinyl]oxy]methy]-α-(methoxyimino)-N-methyl-]", "values": [{"measurement": "PLASVI control of plant disease", "setting": "Plasmopara viticola", "result": "++ (++ = 75-100 % control of plant disease)"}, {"measurement": "ERYSGT control of plant disease", "setting": "Erysiphe graminis", "result": "+ (+ = 25-74% control of plant disease)"}, {"measurement": "PUCCRT control of plant disease", "setting": "Puccinia recondita", "result": "++ (++ = 75-100 % control of plant disease)"}, {"measurement": "LEPTNO control of plant disease", "setting": "Leptosphaeria nodorum", "result": "++ (++ = 75-100 % control of plant disease)"}]}
{"compound": "CNC(=O)C(=NOC)c1ccccc1COc1cccc(OCCOC(C)C)n1", "note": "[Compound 53]", "values": [{"measurement": "PLASVI control of plant disease", "setting": "Plasmopara viticola", "result": "++ (++ = 75-100 % control of plant disease)"}, {"measurement": "ERYSGT control of plant disease", "setting": "Erysiphe graminis", "result": "++ (++ = 75-100 % control of plant disease)"}, {"measurement": "LEPTNO control of plant disease", "setting": "Leptosphaeria nodorum", "result": "− (− = 0-24% control of plant disease)"}]}
{"compound": "CNC(=O)C(=NOC)c1ccccc1COc1cccc(OCCCOC(C)C)n1", "note": "[Compound 54]", "values": [{"measurement": "PLASVI control of plant disease", "setting": "Plasmopara viticola", "result": "++ (++ = 75-100 % control of plant disease)"}, {"measurement": "ERYSGT control of plant disease", "setting": "Erysiphe graminis", "result": "++ (++ = 75-100 % control of plant disease)"}, {"measurement": "LEPTNO control of plant disease", "setting": "Leptosphaeria nodorum", "result": "++ (++ = 75-100 % control of plant disease)"}]}
{"compound": "CCCOCCCOc1cccc(OCc2ccccc2C(=NOC)C(=O)NC)n1", "note": "[Compound 89]", "values": [{"measurement": "PLASVI control of plant disease", "setting": "Plasmopara viticola", "result": "− (− = 0-24% control of plant disease)"}, {"measurement": "ERYSGT control of plant disease", "setting": "Erysiphe graminis", "result": "+ (+ = 25-74% control of plant disease)"}, {"measurement": "LEPTNO control of plant disease", "setting": "Leptosphaeria nodorum", "result": "− (− = 0-24% control of plant disease)"}]}
